ChEMBL document CHEMBL5370646, “Synthesis and Conformational Analysis of FR901464-Based RNA Splicing Modulators and Their Synergism in Drug-Resistant Cancers” (J Med Chem, 2023)
The source made the active and inactive calls. No cut-off for these calls is given here.

Tests used:
DMS-53 [1] = assay: Synergistic antiproliferative activity against human DMS-53 cells assessed as combination index at 1.5 nM incubated for 72 hrs in presence of […] venetoclax by WST-1 assay; type: functional
DMS-53 [2] = assay: Synergistic antiproliferative activity against human DMS-53 cells assessed as combination index at 0.5 nM incubated for 72 hrs in presence of […] venetoclax by WST-1 assay; type: functional
DMS-114 [3] = assay: Synergistic antiproliferative activity against human DMS-114 cells assessed as combination index at 3 nM incubated for 72 hrs in presence of 12 uM venetoclax by WST-1 assay; type: functional
[4] = Synergistic antiproliferative activity against human Osimertinib-resistant HCC827AR cell assessed as combination index at 2 nM incubated for 72 hrs in presence of 0.50 uM osimertinib by WST-1 assay; type: functional
SW48 = assay: Growth inhibition of human SW48 cells assessed as reduction in cell viability incubated for 72 hrs; type: functional
DMS-53 [5] = assay: Synergistic antiproliferative activity against human DMS-53 cells assessed as combination index at 1 nM incubated for 72 hrs in presence of 25 uM venetoclax by WST-1 assay; type: functional
DMS-53 [6] = assay: Synergistic antiproliferative activity against human DMS-53 cells assessed as combination index at 0.5 nM incubated for 72 hrs in presence of 50 uM venetoclax by WST-1 assay; type: functional
DMS-114 [7] = assay: Synergistic antiproliferative activity against human DMS-114 cells assessed as combination index at 2 nM incubated for 72 hrs in presence of 4.8 uM venetoclax by WST-1 assay; type: functional
DMS-53 [8] = assay: Synergistic antiproliferative activity against human DMS-53 cells assessed as combination index at 1.5 nM incubated for 72 hrs in presence of […] venetoclax by WST-1 assay; type: functional
[9] = Synergistic antiproliferative activity against human Osimertinib-resistant HCC827AR cell assessed as combination index at 1.5 nM incubated for 72 hrs in presence of 0.25 uM osimertinib by WST-1 assay; type: functional
DMS-53 [10] = assay: Synergistic antiproliferative activity against human DMS-53 cells assessed as combination index at 1 nM incubated for 72 hrs in presence of […] venetoclax by WST-1 assay; type: functional
HCT-116 [11] = assay: Growth inhibition of human HCT-116 cells assessed as reduction in cell viability incubated for 72 hrs; type: functional
DMS-114 [12] = assay: Synergistic antiproliferative activity against human DMS-114 cells assessed as combination index at 3 nM incubated for 72 hrs in presence of 4.8 uM venetoclax by WST-1 assay; type: functional
[13] = Synergistic antiproliferative activity against human Osimertinib-resistant HCC827AR cell assessed as combination index at 1.5 nM incubated for 72 hrs in presence of 2 uM osimertinib by WST-1 assay; type: functional
DMS-114 [14] = assay: Synergistic antiproliferative activity against human DMS-114 cells assessed as combination index at 1 nM incubated for 72 hrs in presence of 4.8 uM venetoclax by WST-1 assay; type: functional
DMS-114 [15] = assay: Synergistic antiproliferative activity against human DMS-114 cells assessed as combination index at 1 nM incubated for 72 hrs in presence of 12 uM venetoclax by WST-1 assay; type: functional
DMS-53 [16] = assay: Synergistic antiproliferative activity against human DMS-53 cells assessed as combination index at 1.5 nM incubated for 72 hrs in presence of 50 uM venetoclax by WST-1 assay; type: functional
[17] = Synergistic antiproliferative activity against human Osimertinib-resistant HCC827AR cell assessed as combination index at 2 nM incubated for 72 hrs in presence of 2 uM osimertinib by WST-1 assay; type: functional
[18] = Synergistic antiproliferative activity against human Osimertinib-resistant HCC827AR cell assessed as combination index at 1 nM incubated for 72 hrs in presence of 1 uM osimertinib by WST-1 assay; type: functional
[19] = Synergistic antiproliferative activity against human Osimertinib-resistant HCC827AR cell assessed as combination index at 2.5 nM incubated for 72 hrs in presence of 2 uM osimertinib by WST-1 assay; type: functional
[20] = Synergistic antiproliferative activity against human Osimertinib-resistant HCC827AR cell assessed as combination index at 1.5 nM incubated for 72 hrs in presence of 4 uM osimertinib by WST-1 assay; type: functional
HCT-116 [21] = assay: Modulation of RNA splicing in human HCT-116 cells assessed as decrease in MCL-1L expression by Western blot analysis; type: functional, cell-based; settings: dose 3-100 nM
[22] = Synergistic antiproliferative activity against human Osimertinib-resistant HCC827AR cell assessed as combination index at 2 nM incubated for 72 hrs in presence of 0.25 uM osimertinib by WST-1 assay; type: functional
DMS-53 [23] = assay: Synergistic antiproliferative activity against human DMS-53 cells assessed as combination index at 2 nM incubated for 72 hrs in presence of 200 […] by WST-1 assay; type: functional
DMS-114 [24] = assay: Modulation of RNA splicing in human DMS-114 cells at 3 to 30 nM by Western blot analysis; type: functional, cell-based; settings: dose 3-30 nM
[25] = Metabolic stability in CD1 mouse plasma measured after 48 hrs by LC-MS analysis; type: ADME, cell-free
DMS-114 [26] = assay: Growth inhibition of human DMS-114 cells assessed as reduction in cell viability incubated for 72 hrs; type: functional
DMS-53 [27] = assay: Synergistic antiproliferative activity against human DMS-53 cells assessed as combination index at 1.5 nM incubated for 72 hrs in presence of 25 uM venetoclax by WST-1 assay; type: functional
HCT-116 [28] = assay: Modulation of RNA splicing in human HCT-116 cells assessed as decrease in SF3B1 phosphorylation at thr313 residue by Western blot analysis; type: functional, cell-based; settings: dose 3-100 nM
[29] = Growth inhibition of human CCD-841CoN cells assessed as reduction in cell viability incubated for 72 hrs; type: toxicity, cell-based
DMS-53 [30] = assay: Synergistic antiproliferative activity against human DMS-53 cells assessed as combination index at 2 nM incubated for 72 hrs in presence of […] venetoclax by WST-1 assay; type: functional
[31] = Synergistic antiproliferative activity against human Osimertinib-resistant HCC827AR cell assessed as combination index at 2.5 nM incubated for 72 hrs in presence of 0.25 uM osimertinib by WST-1 assay; type: functional
DMS-114 [32] = assay: Synergistic antiproliferative activity against human DMS-114 cells assessed as combination index at 1 nM incubated for 72 hrs in presence of 2.4 uM venetoclax by WST-1 assay; type: functional
DMS-53 [33] = assay: Synergistic antiproliferative activity against human DMS-53 cells assessed as combination index at 1 nM incubated for 72 hrs in presence of […] venetoclax by WST-1 assay; type: functional
DMS-53 [34] = assay: Synergistic antiproliferative activity against human DMS-53 cells assessed as combination index at 1 nM incubated for 72 hrs in presence of 50 uM venetoclax by WST-1 assay; type: functional
DMS-53 [35] = assay: Synergistic antiproliferative activity against human DMS-53 cells assessed as combination index at 2 nM incubated for 72 hrs in presence of 25 […] by WST-1 assay; type: functional
DMS-114 [36] = assay: Synergistic antiproliferative activity against human DMS-114 cells assessed as combination index at 2 nM incubated for 72 hrs in presence of 3.6 uM venetoclax by WST-1 assay; type: functional

GI50 (SW48): 2.5 nM
GI50 (HCT-116 [11]): 2 nM
Stability [25]: Stable
SMILES: COCO[C@@H](C)/C=C\C(=O)N[C@@H]1C[C@H](C)[C@H](C/C=C(C)/C=C/[C@H]2OC(C)(C)C[C@@]3(CO3)[C@@H]2O)O[C@@H]1C
CI (DMS-53 [1]): 0.67
CI (DMS-53 [2]): 1.52
CI (DMS-114 [3]): 0.14
CI [4]: 1.08
CI (DMS-53 [5]): 1.04
CI (DMS-53 [6]): 1.26
CI (DMS-114 [7]): 0.66
CI (DMS-53 [8]): 0.51
CI [9]: 0.92
CI (DMS-53 [10]): 1.26
CI (DMS-114 [12]): 0.21
CI [13]: 1.34
CI (DMS-114 [14]): 1.3
CI (DMS-114 [15]): 0.88
CI (DMS-53 [16]): 0.63
CI [17]: 1.17
CI [18]: 1.48
CI [19]: 0.99
CI [20]: 0.92
Activity (HCT-116 [21]): Dose-Dependent Effect
CI [22]: 0.97
CI (DMS-53 [23]): 0.4
Activity (DMS-114 [24]): Active
GI50 (DMS-114 [26]): 2.3 nM
CI (DMS-53 [27]): 0.7
Activity (HCT-116 [28]): Dose-Dependent Effect
GI50 at 72 h [29]: 9.6 nM
CI (DMS-53 [30]): 0.42
CI [31]: 0.83
CI (DMS-114 [32]): 1.11
CI (DMS-53 [33]): 1.08
CI (DMS-53 [34]): 0.8
CI (DMS-53 [35]): 0.58
CI (DMS-114 [36]): 0.63
